Experimental data taken from patent EP0400562A1, “Pyrrolopyrimidines, their production and use as tumoricidal agents” (Takeda Chemical Industries, Ltd., priority 1989, dated 1990).
≈ marks a conversion by molar mass, not a printed value.

System: Human epidermoid carcinoma KB cells
Assay: cell growth inhibiting effect in KB cells (MTT method)
Assay type: cell-based
Conditions: 72 hours culture with compound, absorbance at 590nm, concentration required to decrease the number of cells in the untreated control group by 50%
Description: The cell growth inhibiting effect (IC₅₀)of the compounds obtained in the Examples described below in KB cells was determined by the following method.
Human epidermoid carcinoma KB cells (1 x 10⁴ cells/ml) prepared according to a conventional method were inoculated into each well of the 96-microwell plate (0.1ml in a well) and subjected to standing culture at 37°C under 5% CO₂ for 24 hours. To this was added a solution of one of the compounds obtained in the Examples in 10% MEM (Nissui Pharmaceutical Co. Ltd. Japan), and subjected again to standing culture at 37°C under 5% CO₂ for 72 hours. Then the culture was pipetted out, and another 0.1ml of the solution of MTT (Dojin Laboratories Japan) in 10 % MEM (1.0mg/ml) was added and incubated at 37°C for 4 hours. Then 0.1ml of the […] (Wako Pure Chemicals, Japan) was added and incubated at 37°C for further 24 hours. The absorbance at 590nm was measured and the IC₅₀ value of the compound was defined as the concentration of the compound required to decrease the number of cells in the untreated control group by 50%.

Row | IC50 (Homo sapiens, read-out: IC₅₀) [ng/mL] | Structure (SMILES) | IC₅₀ [µg/mL]
1 |  | CN(CCc1c[nH]c2nc(N)nc(N)c12)c1ccc(C(=O)N[C@@H](CCC(=O)O)C(=O)O)cc1 [Example 6, N-[4-[N-[2-(2,4-diamino-7H-pyrrolo[2,3-d]pyrimidin-5-yl)ethyl]-N-methyl]aminobenzoyl]-L-glutamic acid] | 0.0013
2 |  | Nc1nc(N)c2c(n1)NCC2CCNc1ccc(C(=O)N[C@@H](CCC(=O)O)C(=O)O)cc1 (stereo partly shown) [Example 10] | 0.0025
3 |  | CN(CCC1CNc2nc(N)nc(N)c21)c1ccc(C(=O)N[C@@H](CCC(=O)O)C(=O)O)cc1 (stereo partly drawn) [Example 4, N-[4-[N-[2-(2,4-diamino-6,7-dihydro-5H-pyrrolo[2,3-d]pyrimidin-5-yl)ethyl]-N-methyl]aminobenzoyl]-L-glutamic acid] | 0.0025
4 | 5 (≈ 7.8 nM) | CCCCCCCC(=O)Nc1nc(S)c2c(CNCc3ccc(C(=O)N[C@@H](CCC(=O)OCC)C(=O)OCC)cc3)c[nH]c2n1 [Example 13, diethyl N-[4-[N-(4-mercapto-2-octanoylamino-7H-pyrrolo[2,3-d]pyrimidin-5-ylmethyl)aminomethyl]benzoyl] -L-glutamate] | 
